Results on 55 compounds are retold here after patent US20170037028A1 (BAYER PHARMA AKTIENGESELLSCHAFT, priority 2013, published 2017).

In the test the target is T1, GLUT1 (Homo sapiens, UniProt P11166).
T1 sequence (P11166 1-492): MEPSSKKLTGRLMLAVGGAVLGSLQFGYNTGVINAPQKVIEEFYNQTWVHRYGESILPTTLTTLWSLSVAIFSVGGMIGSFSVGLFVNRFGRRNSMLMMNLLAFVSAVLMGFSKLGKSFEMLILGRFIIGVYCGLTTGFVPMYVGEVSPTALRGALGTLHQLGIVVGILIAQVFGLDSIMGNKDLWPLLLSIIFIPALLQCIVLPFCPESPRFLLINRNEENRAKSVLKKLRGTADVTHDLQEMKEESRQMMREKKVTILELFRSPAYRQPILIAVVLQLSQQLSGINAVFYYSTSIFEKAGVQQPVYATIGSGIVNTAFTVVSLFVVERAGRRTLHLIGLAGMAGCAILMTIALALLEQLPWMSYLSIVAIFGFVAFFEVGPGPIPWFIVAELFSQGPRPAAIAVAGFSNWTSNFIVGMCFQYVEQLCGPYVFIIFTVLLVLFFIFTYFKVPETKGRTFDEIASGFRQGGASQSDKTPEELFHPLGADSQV
The test is described as follows: Indirect measurement of GLUT1 activity by quantification of intracellular ATP levels (glucose induced ATP increase). In kind it is cell-based. Set-up: endogenous in cells; host or cells: DLD1 or CHO-K1. The conditions noted are these: read-out: IC50 regarding glucose induced ATP increase (GLUT1 inhibition). The essentials:
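Intracellular ATP was measured by CellTiter-Glo luminescence as an indirect readout of transport: glucose-driven for GLUT1, fructose-driven for GLUT2. DLD1 or CHO-K1 cells were used alongside an oxidative phosphorylation inhibitor. Beforehand, cells were held overnight in glucose-free 1% FCS medium to deplete ATP.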
Regarding `Cc1nn(Cc2ccc(O)cc2)c(C)c1NC(=O)c1cc(C(F)(F)F)nc2c(Cl)cc(Cl)cc12` [Example 1048], the IC50 was 0.0115 µM.

As to `Cc1nn(Cc2ccc(C(=O)NCCN3CC4(CCS4(=O)=O)C3)cc2)c(C)c1NC(=O)c1cc(C(F)(F)F)nc2ccc(Br)cc12` [Example 1049], the IC50 was found to be 0.0117 µM.

`Cc1nn(Cc2ccc(C(=O)NCCCO)cc2)c(C)c1NC(=O)c1cc(C(F)(F)F)nc2ccc(Br)cc12` [Example 1051]: the IC50 stood at 0.0118 µM.

`COc1cc(C(=O)Nc2c(C)nn(Cc3ccc(S(C)(=O)=O)cc3)c2C)c2ccccc2n1` [Example 1052]: the IC50 was determined as 0.0131 µM.

For `Cc1nn(Cc2ccc(C(=O)N[C@H]3CC[C@H](O)CC3)cc2)c(C)c1NC(=O)c1cc(C(F)(F)F)nc2ccc(Br)cc12` [Example 1053], the IC50 turned out to be 0.0137 µM.

For `COCCN(CCC#N)C(=O)c1ccc(Cn2nc(C)c(NC(=O)c3cc(C(F)(F)F)nc4ccc(Br)cc34)c2C)cc1` [Example 1054], the IC50 was found to be 0.0139 µM.

Consider `Cc1nn(Cc2ccc(C(=O)Nc3cc[nH]n3)cc2)c(C)c1NC(=O)c1cc(C(F)(F)F)nc2ccc(Br)cc12` [Example 1055], for which the IC50 came to 0.0144 µM.

On to `Cc1c(NC(=O)c2cc(C(F)(F)F)nc3ccc(Br)cc23)c(C(F)(F)F)nn1Cc1ccc(C#N)nc1` [Example 1056], for which the IC50 came out at 0.015 µM.

For `Cc1nn(Cc2ccc(C(=O)NCC3CCCO3)cc2)c(C)c1NC(=O)c1cc(C(F)(F)F)nc2ccc(Br)cc12` (stereo not shown) [Example 1058], the IC50 amounted to 0.0153 µM.

With `Cc1nn(Cc2ccc(C(=O)NCC(F)(F)F)cc2)c(C)c1NC(=O)c1cc(C(F)(F)F)nc2ccc(Br)cc12` [Example 1059], the IC50 came to 0.0156 µM.

Regarding `Cc1nn(Cc2ccc(C(=O)NCc3ccc(-c4nnn[nH]4)cc3)cc2)c(C)c1NC(=O)c1cc(C(F)(F)F)nc2ccc(Br)cc12` [Example 1060], the IC50 worked out at 0.0158 µM.

As to `Cc1nn(Cc2ccc(C(=O)N[C@H]3CC[C@@H](O)CC3)cc2)c(C)c1NC(=O)c1cc(C(F)(F)F)nc2ccc(Br)cc12` [Example 1062], the IC50 stood at 0.0164 µM.

Regarding `COc1ccc(CCNC(=O)c2ccc(Cn3nc(C)c(NC(=O)c4cc(C(F)(F)F)nc5ccc(Br)cc45)c3C)cc2)cc1` [Example 1063], the IC50 was found to be 0.0168 µM.

Take `Cc1nn(Cc2ccc(C(=O)Nc3ccccn3)cc2)c(C)c1NC(=O)c1cc(C(F)(F)F)nc2ccc(Br)cc12` [Example 1064]: the IC50 worked out at 0.0186 µM.

For the compound `Cc1c(NC(=O)c2cc(C(F)(F)F)nc3ccc(Br)cc23)c(C(F)(F)F)nn1Cc1ccc(C(=O)NCCO)cn1` [Example 1065], the IC50 turned out to be 0.0187 µM.

On to `Cc1nn(Cc2ccc(C(=O)Nc3cccc(Cl)c3)cc2)c(C)c1NC(=O)c1cc(C(F)(F)F)nc2ccc(Br)cc12` [Example 1066], for which the IC50 amounted to 0.0191 µM.

For `Cc1nn(Cc2ccc(C(=O)NCCC(N)=O)cc2)c(C)c1NC(=O)c1cc(C(F)(F)F)nc2ccc(Br)cc12` [Example 1067], the IC50 turned out to be 0.0192 µM.

Regarding `Cc1nn(Cc2ccc(C(=O)NCc3ccccn3)cc2)c(C)c1NC(=O)c1cc(C(F)(F)F)nc2ccc(Br)cc12` [Example 1068], the IC50 was 0.0195 µM.

As to `Cc1nn(Cc2ccc(C(=O)Nc3ccc(N(C)C)cc3)cc2)c(C)c1NC(=O)c1cc(C(F)(F)F)nc2ccc(Br)cc12` [Example 1069], the concentration for half-maximal inhibition (IC50) turned out to be 0.0198 µM.

As for `CNC(=O)c1ccc(Cn2nc(C)c(NC(=O)c3cc(C(F)(F)F)nc4ccc(Br)cc34)c2C)nc1` [Example 1070], the half-maximal inhibitory concentration (IC50) turned out to be 0.0202 µM.

`Cc1nn(Cc2ccccc2O)c(C)c1NC(=O)c1cc(C(F)(F)F)nc2c(Cl)cc(Cl)cc12` [Example 1071]: the IC50 is 0.021 µM.

`Cc1nn(CC2CCN(S(C)(=O)=O)CC2)c(C)c1NC(=O)c1cc(C(F)(F)F)nc2ccc(Br)cc12` [Example 1072]: the IC50 stood at 0.021 µM.

For `Cc1nn(Cc2ccc(C(=O)NCC3CC3)cn2)c(C)c1NC(=O)c1cc(C(F)(F)F)nc2ccc(Br)cc12` [Example 1073], the IC50 was found to be 0.0217 µM.

For `Cc1nn(Cc2ccncc2C#N)c(C)c1NC(=O)c1cc(C(F)(F)F)nc2ccc(Br)cc12` [Example 1074], the half-inhibitory concentration (IC50) worked out at 0.0223 µM.

As for `COc1cc(C(=O)Nc2c(C(F)(F)F)nn(Cc3ccc(C#N)cc3)c2C)c2ccccc2n1` [Example 1075], the IC50 is 0.0225 µM.

Turning to `Cc1c(NC(=O)c2cc(C(F)(F)F)nc3ccc(Br)cc23)c(C(F)(F)F)nn1Cc1ccc(C(N)=O)cn1` [Example 1076], the IC50 was found to be 0.0227 µM.

For `Cc1nn(Cc2ccc(C(=O)NCCCCCO)cc2)c(C)c1NC(=O)c1cc(C(F)(F)F)nc2ccc(Br)cc12` [Example 1077], the half-inhibitory concentration (IC50) stood at 0.0231 µM.

Turning to `CNC(=O)c1ccc(Cn2nc(C(F)(F)F)c(NC(=O)c3cc(C(F)(F)F)nc4ccc(Br)cc34)c2C)nc1` [Example 1078], the IC50 worked out at 0.0239 µM.

Take `Cc1nn(Cc2ccc(C(=O)NCC3CC3)cc2)c(C)c1NC(=O)c1cc(C(F)(F)F)nc2ccc(Br)cc12` [Example 1079]: the half-inhibitory concentration (IC50) was found to be 0.0244 µM.

Take `Cc1nn(Cc2ccc(C(=O)NCC(F)F)cc2)c(C)c1NC(=O)c1cc(C(F)(F)F)nc2ccc(Br)cc12` [Example 1080]: the IC50 amounted to 0.0258 µM.

For the compound `Cc1nn(Cc2ccc(C(=O)N3CCC[C@@H]3CO)cc2)c(C)c1NC(=O)c1cc(C(F)(F)F)nc2ccc(Br)cc12` [Example 1081], the IC50 is 0.0263 µM.

With `Cc1nn(Cc2ncccc2C#N)c(C)c1NC(=O)c1cc(C(N)=O)nc2ccccc12` [Example 1082], the half-inhibitory concentration (IC50) is 0.0282 µM.

In the case of `Cc1nn(Cc2ccc(C(=O)NCCCCO)cc2)c(C)c1NC(=O)c1cc(C(F)(F)F)nc2ccc(Br)cc12` [Example 1083], the IC50 was determined as 0.0294 µM.

As for `Cc1nn(Cc2ccc(C(=O)NCCOc3ccccc3F)cc2)c(C)c1NC(=O)c1cc(C(F)(F)F)nc2ccc(Br)cc12` [Example 1084], the IC50 is 0.0308 µM.

For `Cc1nn(Cc2ccc(C(=O)NCC(C)(C)O)cc2)c(C)c1NC(=O)c1cc(C(F)(F)F)nc2ccc(Br)cc12` [Example 1085], the IC50 is 0.0312 µM.

Turning to `Cc1nn(Cc2ccc(C#N)nc2)c(C)c1NC(=O)c1cc(C(N)=O)nc2ccc(F)cc12` [Example 1086], the IC50 worked out at 0.0316 µM.

For `Cc1nn(Cc2ccc(C(=O)N3CC4(CCS4(=O)=O)C3)cc2)c(C)c1NC(=O)c1cc(C(F)(F)F)nc2ccc(Br)cc12` [Example 1087], the IC50 came to 0.0322 µM.

`Cc1nn(Cc2ccc(F)cc2)c(C)c1NC(=O)c1cc(C(F)(F)F)nc2ccc([N+](=O)[O-])cc12` [Example 1088]: the IC50 worked out at 0.0349 µM.

As to `COc1ccc(Cn2nc(C(F)(F)F)c(NC(=O)c3cc(OC)nc4ccccc34)c2C)cc1` [Example 1089], the IC50 was 0.0355 µM.

Turning to `Cc1nn(Cc2ccc(C(=O)NCCCn3ccnc3)cc2)c(C)c1NC(=O)c1cc(C(F)(F)F)nc2ccc(Br)cc12` [Example 1091], the IC50 came to 0.036 µM.

With `Cc1nn(Cc2ccc(C#N)cc2)c(C)c1NC(=O)c1cc(N(C)C)nc2ccccc12` [Example 1092], the 50% inhibitory concentration (IC50) is 0.0379 µM.

Regarding `Cc1nn(Cc2ccc(C(=O)NCCO)cn2)c(C)c1NC(=O)c1cc(C(F)(F)F)nc2ccc(Br)cc12` [Example 1093], the IC50 came out at 0.0384 µM.

For `Cc1nn(CC2CCN(S(C)(=O)=O)CC2)c(C)c1NC(=O)c1cc(C(N)=O)nc2ccccc12` [Example 1094], the IC50 was 0.0393 µM.

Consider `Cc1nn(Cc2ccc(C(=O)NC(C)(CO)CO)cc2)c(C)c1NC(=O)c1cc(C(F)(F)F)nc2ccc(Br)cc12` [Example 1096], for which the 50% inhibitory concentration (IC50) was 0.0411 µM.

In the case of `C=Cc1ccc(Cn2nc(C)c(NC(=O)c3cc(C)nc4ccc(C)cc34)c2C)cc1` [Example 1097], the IC50 was 0.0413 µM.

Regarding `Cc1nn(Cc2ccc(C(=O)NCCNC(=O)C3CC3)cc2)c(C)c1NC(=O)c1cc(C(F)(F)F)nc2ccc(Br)cc12` [Example 1098], the IC50 was found to be 0.0414 µM.

Turning to `Cc1nn(Cc2ccc(C(=O)N3CCC(CO)CC3)cc2)c(C)c1NC(=O)c1cc(C(F)(F)F)nc2ccc(Br)cc12` [Example 1099], the IC50 came out at 0.0419 µM.

On to `Cc1nn(CCc2ccc(F)cc2)c(C)c1NC(=O)c1cc(C(N)=O)nc2ccccc12` [Example 1100], for which the concentration for half-maximal inhibition (IC50) is 0.0421 µM.

For `Cc1nn(Cc2ccc(C(=O)N[C@@H](C)CO)cc2)c(C)c1NC(=O)c1cc(C(F)(F)F)nc2ccc(Br)cc12` [Example 1101], the half-inhibitory concentration (IC50) was found to be 0.0428 µM.

Consider `COc1cc(C(=O)Nc2c(C)nn(Cc3ncccc3C#N)c2C)c2ccccc2n1` [Example 1102], for which the IC50 was determined as 0.0435 µM.

As for `Cc1nn(CC2COc3ccccc3O2)c(C)c1NC(=O)c1cc(C(N)=O)nc2ccccc12` (stereo not shown) [Example 1103], the IC50 was 0.0447 µM.

As for `COC(=O)[C@@H](NC(=O)c1ccc(Cn2nc(C)c(NC(=O)c3cc(C(F)(F)F)nc4ccc(Br)cc34)c2C)cc1)[C@@H](C)O` [Example 1104], the IC50 was 0.0478 µM.

On to `Cc1c(NC(=O)c2cc(C(F)(F)F)nc3ccc(Br)cc23)c(C(F)(F)F)nn1Cc1ccncc1C#N` [Example 1105], for which the IC50 worked out at 0.0482 µM.

Turning to `Cc1nn(Cc2ccc(C(=O)NCCn3cccn3)cc2)c(C)c1NC(=O)c1cc(C(F)(F)F)nc2ccc(Br)cc12` [Example 1106], the IC50 stood at 0.0496 µM.

For the compound `Cc1nn(Cc2ccc(C(=O)NCCCC(C)(C)CO)cc2)c(C)c1NC(=O)c1cc(C(F)(F)F)nc2ccc(Br)cc12` [Example 1107], the IC50 worked out at 0.0522 µM.

What is called IC50 is the concentration at which inhibition is half-maximal.
